A value given as a limit tells only on which side of the number the result lay.

For one experiment, the target named is BRG-1 (Homo sapiens, UniProt P51532). The experiment can be described thus: ATPase catalytic activity assay (ADP-Glo), BRG-1. As to conditions: for Emax: 1 h, read-out: BRG1 Max % Inhibition, ADP-Glo, 30 nM BRG-1, 400 μM ATP. In general terms: ADP-Glo first removes unused ATP, then detects ADP through luciferase.
In the next experiment the target is BRM (Homo sapiens, UniProt P51531). Briefly: ATPase catalytic activity assay (ADP-Glo), BRM. As to conditions: 30 nM BRM, 400 μM ATP; for IC50: BRM ATPase: IC50 (uM).
Sequence of BRM (P51531 whole entry): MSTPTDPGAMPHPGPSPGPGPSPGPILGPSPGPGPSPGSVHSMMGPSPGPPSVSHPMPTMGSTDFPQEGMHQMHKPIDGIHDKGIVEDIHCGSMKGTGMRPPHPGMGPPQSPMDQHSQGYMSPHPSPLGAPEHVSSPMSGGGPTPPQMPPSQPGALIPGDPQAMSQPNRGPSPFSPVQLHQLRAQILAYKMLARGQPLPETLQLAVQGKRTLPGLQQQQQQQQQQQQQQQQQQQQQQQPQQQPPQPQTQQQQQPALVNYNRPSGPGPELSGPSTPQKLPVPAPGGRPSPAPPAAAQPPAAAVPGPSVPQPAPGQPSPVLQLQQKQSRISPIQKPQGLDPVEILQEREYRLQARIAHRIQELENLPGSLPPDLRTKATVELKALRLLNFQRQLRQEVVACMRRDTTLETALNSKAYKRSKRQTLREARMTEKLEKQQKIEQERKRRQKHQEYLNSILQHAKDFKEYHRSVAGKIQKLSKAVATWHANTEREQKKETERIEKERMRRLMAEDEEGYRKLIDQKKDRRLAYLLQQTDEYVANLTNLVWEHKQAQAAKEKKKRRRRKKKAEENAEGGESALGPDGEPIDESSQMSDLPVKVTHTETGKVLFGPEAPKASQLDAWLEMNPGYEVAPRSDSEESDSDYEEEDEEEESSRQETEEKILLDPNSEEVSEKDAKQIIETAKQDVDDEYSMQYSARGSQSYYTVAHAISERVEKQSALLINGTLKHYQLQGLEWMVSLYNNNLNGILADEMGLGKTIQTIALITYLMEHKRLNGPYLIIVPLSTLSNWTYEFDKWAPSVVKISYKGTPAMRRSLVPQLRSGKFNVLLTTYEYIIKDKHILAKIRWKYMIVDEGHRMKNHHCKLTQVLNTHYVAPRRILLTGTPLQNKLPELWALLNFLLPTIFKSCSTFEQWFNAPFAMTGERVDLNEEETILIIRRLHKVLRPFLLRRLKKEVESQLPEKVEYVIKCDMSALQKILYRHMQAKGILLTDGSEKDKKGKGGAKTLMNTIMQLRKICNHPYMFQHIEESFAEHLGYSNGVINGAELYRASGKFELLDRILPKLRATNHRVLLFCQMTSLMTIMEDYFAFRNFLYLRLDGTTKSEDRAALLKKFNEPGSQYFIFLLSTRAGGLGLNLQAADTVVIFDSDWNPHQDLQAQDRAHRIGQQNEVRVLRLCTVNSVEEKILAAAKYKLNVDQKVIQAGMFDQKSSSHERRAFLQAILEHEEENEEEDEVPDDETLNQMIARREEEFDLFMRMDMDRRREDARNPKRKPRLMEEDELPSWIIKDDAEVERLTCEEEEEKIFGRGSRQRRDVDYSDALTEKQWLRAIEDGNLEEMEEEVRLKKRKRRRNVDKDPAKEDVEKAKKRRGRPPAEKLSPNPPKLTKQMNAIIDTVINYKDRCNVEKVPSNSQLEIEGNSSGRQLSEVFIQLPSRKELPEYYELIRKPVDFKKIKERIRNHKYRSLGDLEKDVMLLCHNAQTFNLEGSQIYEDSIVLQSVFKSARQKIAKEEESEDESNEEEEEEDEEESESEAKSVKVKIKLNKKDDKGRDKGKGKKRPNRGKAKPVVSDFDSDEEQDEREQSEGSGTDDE

Sequence of BRG-1 (P51532 whole entry): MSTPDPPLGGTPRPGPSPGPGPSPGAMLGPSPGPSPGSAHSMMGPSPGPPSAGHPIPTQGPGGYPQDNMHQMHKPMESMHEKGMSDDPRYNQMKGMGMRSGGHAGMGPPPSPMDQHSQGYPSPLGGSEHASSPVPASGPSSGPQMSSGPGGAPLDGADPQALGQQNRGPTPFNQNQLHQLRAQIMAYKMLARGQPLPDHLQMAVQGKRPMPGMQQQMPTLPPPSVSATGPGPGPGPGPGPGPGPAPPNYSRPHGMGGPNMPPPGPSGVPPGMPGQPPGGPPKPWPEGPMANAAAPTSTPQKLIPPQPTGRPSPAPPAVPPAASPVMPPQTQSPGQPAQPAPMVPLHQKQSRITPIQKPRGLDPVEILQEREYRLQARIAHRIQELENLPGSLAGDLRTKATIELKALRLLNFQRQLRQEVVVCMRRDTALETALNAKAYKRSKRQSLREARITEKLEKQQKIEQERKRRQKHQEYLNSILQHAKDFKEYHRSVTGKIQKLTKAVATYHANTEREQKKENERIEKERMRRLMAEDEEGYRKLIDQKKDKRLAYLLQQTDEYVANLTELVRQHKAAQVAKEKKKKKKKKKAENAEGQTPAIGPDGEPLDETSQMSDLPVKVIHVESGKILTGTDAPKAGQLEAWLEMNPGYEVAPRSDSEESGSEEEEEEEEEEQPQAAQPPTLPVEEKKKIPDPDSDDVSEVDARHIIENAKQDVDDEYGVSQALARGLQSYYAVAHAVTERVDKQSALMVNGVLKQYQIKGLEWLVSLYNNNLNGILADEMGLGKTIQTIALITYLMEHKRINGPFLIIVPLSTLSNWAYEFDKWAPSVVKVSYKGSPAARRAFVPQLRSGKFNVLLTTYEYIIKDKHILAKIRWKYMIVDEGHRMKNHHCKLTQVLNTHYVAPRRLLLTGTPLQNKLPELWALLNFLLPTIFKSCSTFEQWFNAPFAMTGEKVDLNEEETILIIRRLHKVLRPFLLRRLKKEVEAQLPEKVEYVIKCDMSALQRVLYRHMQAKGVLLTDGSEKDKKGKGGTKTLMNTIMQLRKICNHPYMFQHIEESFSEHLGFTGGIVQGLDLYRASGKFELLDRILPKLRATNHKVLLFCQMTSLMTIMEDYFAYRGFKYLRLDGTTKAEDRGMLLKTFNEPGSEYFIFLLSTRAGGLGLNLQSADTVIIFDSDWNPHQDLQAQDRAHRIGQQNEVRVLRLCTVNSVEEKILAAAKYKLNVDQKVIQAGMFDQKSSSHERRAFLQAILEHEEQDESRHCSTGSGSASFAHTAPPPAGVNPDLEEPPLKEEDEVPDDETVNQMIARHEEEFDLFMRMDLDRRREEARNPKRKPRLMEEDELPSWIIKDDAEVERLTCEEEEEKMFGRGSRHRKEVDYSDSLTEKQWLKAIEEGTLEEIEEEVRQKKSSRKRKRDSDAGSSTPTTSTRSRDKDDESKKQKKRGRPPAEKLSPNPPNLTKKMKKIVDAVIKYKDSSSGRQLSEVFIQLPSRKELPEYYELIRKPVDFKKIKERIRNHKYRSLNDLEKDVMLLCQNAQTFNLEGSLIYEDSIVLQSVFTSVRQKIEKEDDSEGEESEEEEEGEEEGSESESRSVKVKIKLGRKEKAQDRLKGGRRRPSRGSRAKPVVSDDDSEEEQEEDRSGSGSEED

The term IC50 denotes the midpoint of a concentration-inhibition curve. Read a high IC50 as weaker potency in that assay. Turning to `C[C@@]1(C#N)COCc2ccc(C(=O)NCc3cc4nc(-c5cnn(C(F)F)c5)ccc4cn3)cc21` [Compound 504], on BRG-1, the 50% inhibitory concentration (IC50) was greater than 1000 nM and the Emax stood at 44%. For the same molecule, on BRM, the “BRM Max % Inhibition” value is reported as 84% and the IC50 fell in the range of 0.1 to 0.5 µM.

As to `C[C@@]1(C#N)COCc2ccc(C(=O)NCc3cc4nc(-n5ccc(N6CCC6)n5)ccc4cn3)cc21` [Compound 426], at BRG-1, the half-maximal inhibitory concentration (IC50) was in the range of 500 to 1000 nM and the Emax was found to be 78%. At BRM, the “BRM Max % Inhibition” value is listed as 97% and the half-maximal inhibitory concentration (IC50) fell in the range of 0.1 to 0.5 µM.

Consider `CO[C@H]1CCN(c2nccc(-c3ccc4cnc(CNC(=O)c5ccc6c(c5)[C@](C)(C#N)COC6)cc4n3)n2)C1` [Compound 339], for which, at BRG-1, the concentration for half-maximal inhibition (IC50) lay in the range of 100 to 500 nM and the Emax is 95%. In addition, on BRM, the “BRM Max % Inhibition” value came to 100% and the IC50 was less than 0.1 µM.

Turning to `C[C@@]1(C#N)COCc2ccc(C(=O)NCc3cc4nc(C5CC5)ccc4cn3)cc21` [Compound 94], on BRG-1, the IC50 was greater than 1000 nM and the Emax was determined as 45%. In addition, at BRM, the “BRM Max % Inhibition” value stood at 83% and the IC50 was greater than 1 µM.

`C[C@@]1(CO)CCc2ccc(C(=O)NCc3cc4nc(-c5ccccc5)ccc4cn3)cc21` [Compound 90]: at BRG-1, the IC50 is greater than 1000 nM and the Emax amounted to 24%. Also, at BRM, the “BRM Max % Inhibition” value is reported as 82% and the half-inhibitory concentration (IC50) is greater than 1 µM.

Turning to `COc1nn(C)cc1-c1ccc2cnc(CNC(=O)c3ccc4c(c3)[C@](C)(C#N)COC4)cc2c1` [Compound 367], on BRG-1, the IC50 lay in the range of 100 to 500 nM and the Emax stood at 93%. In addition, on BRM, the “BRM Max % Inhibition” value is on record as 102% and the IC50 was less than 0.1 µM.

As for `C[C@@]1(C#N)COCc2ccc(C(=O)NCc3cc4nc(-n5cc(F)cn5)ccc4cn3)cc21` [Compound 411], at BRG-1, the half-inhibitory concentration (IC50) was in the range of 500 to 1000 nM and the Emax stood at 50%. Also, on BRM, the “BRM Max % Inhibition” value was determined as 91% and the IC50 is 0.1 to 0.5 µM.

As for `O=C(NCc1cc2nc(-c3cncc(C4CC4)n3)ccc2cn1)c1cnc2c(c1)[C@@](F)(C(F)F)CCO2` [Compound 243], at BRG-1, the IC50 is greater than 1000 nM and the Emax came to 9%. Also, at BRM, the “BRM Max % Inhibition” value was 81% and the IC50 was in the range of 0.1 to 0.5 µM.

Turning to `COc1nn(C2CC2(F)F)cc1-c1ccc2cnc(CNC(=O)c3ccc4c(c3)[C@](C)(C#N)COC4)cc2n1` (some centres unmarked) [Compound 140], on BRG-1, the IC50 was 500 to 1000 nM and the Emax was 48%. Besides, on BRM, the “BRM Max % Inhibition” value amounted to 94% and the IC50 fell in the range of 0.1 to 0.5 µM.

Turning to `C[C@@]1(C#N)COCc2ccc(C(=O)NCc3cc4nc(-c5ccnc(N6CCC6)n5)sc4cn3)cc21` [Compound 348], at BRG-1, the concentration for half-maximal inhibition (IC50) was in the range of 500 to 1000 nM and the Emax was 72%. For the same molecule, on BRM, the “BRM Max % Inhibition” value came out at 99% and the half-maximal inhibitory concentration (IC50) is less than 0.1 µM.

Consider `COc1nn(C)cc1-c1cnc2cnc(CNC(=O)c3ccc4c(c3)[C@](C)(F)COC4)cc2c1` [Compound 338], for which, at BRG-1, the 50% inhibitory concentration (IC50) was in the range of 500 to 1000 nM and the Emax amounted to 56%. On BRM, the “BRM Max % Inhibition” value worked out at 97% and the 50% inhibitory concentration (IC50) was 0.1 to 0.5 µM.

For `C[C@@]1(F)COCc2ccc(C(=O)NCc3cc(C#Cc4ccccc4)ccn3)cc21` [Compound 14], on BRG-1, the half-maximal inhibitory concentration (IC50) was greater than 1000 nM and the Emax was determined as 64%. Further, at BRM, the “BRM Max % Inhibition” value was found to be 94% and the 50% inhibitory concentration (IC50) fell in the range of 0.5 to 1 µM.

With `C[C@@]1(C#N)COCc2ccc(C(=O)NCc3cc4nc(N5Cc6ccccc6C5=O)ccc4cn3)cc21` [Compound 303], at BRG-1, the IC50 fell in the range of 100 to 500 nM and the Emax amounted to 87%. In addition, at BRM, the “BRM Max % Inhibition” value is listed as 96% and the IC50 lay in the range of 0.1 to 0.5 µM.

Consider `C[C@@]1(C#N)COCc2ccc(C(=O)NCc3ncc4ccc(-c5ccccc5)cc4n3)cc21` [Compound 522], for which, at BRG-1, the half-inhibitory concentration (IC50) was 500 to 1000 nM and the Emax stood at 83%. Besides, at BRM, the “BRM Max % Inhibition” value turned out to be 97% and the IC50 is 0.1 to 0.5 µM.

The values above are taken from patent US12441726B2, “Compounds and uses thereof” (Foghorn Therapeutics Inc., priority 2020, dated 2025).
